Data taken from patent US4189484A, “Antihypertensive quinazoline derivatives” (priority 1977, dated 1980).

Tests used:
Adrenergic α-receptor = Adrenergic α-receptor blocking effect (inhibition of hypertensive action of i.v. adrenalin hydrochloride); assay type: in vivo, Wistar strain male rats; details: relative to prazosin
Experimental: Wistar strain male rats, weighing 250-300 g., were used in this experiment. The rat was anesthetized with pentobarbital sodium and fitted in the right femoral artery with a cannula for determination of blood pressure and in the left femoral vein with another cannula for intravenous injection, the former cannula being connected to an electronic recording system to measure a blood pressure.
Adrenergic α-receptor blocking effect was determined upon whether a hypertensive action with intravenous injection of adrenalin hydrochloride at 0.3 or 1 μg./kg. may be reserved by pretreatment with the test compound.

in vivo = assay type: in vivo; details: mouse, in vivo, po; mice
Experimental: (§1) ICR strain male mice, weighing 30-35 g., were deprived of food for 6 hours (water ad libitum) and then used in the experiment. Each group consisted of 8 animals. The test compound was suspended in a 1% tragacanth gum solution so as to be a volume of 40 ml./kg. and orally given. After administration, numbers of deceased animals, changes in body weight and other general states were observed or determined over 1 week.
(§2) Survived mice were autopsyed.

ICR strain male mice = assay: in vivo; assay type: in vivo; details: for No. of deceased animal: 8 animals per group, 1 week
Experimental: as §1, §2

[1] = test system: spontaneously hypertensive rats (SHR); assay: Antihypertensive effect, oral administration to spontaneously hypertensive rats (mean blood pressure and heart rate); assay type: in vivo, rat; details: for Change in blood pressure after 3 hrs. from administration: Table 1; for Changes in blood pressure (BP) after oral administration / Changes in heart rate (HR) after oral administration: Table 2, male SHR, n=5, p.o.
Experimental: Antihypertensive effect was determined by oral administration of the test compound to spontaneously hypertensive rats (hereinafter referred to as SHR).
These SHR were anesthetized with ether and chronically embedded with a cannula for determination of blood pressure so that one end of the said cannula may be placed in abdominal aorta and the other end thereof may be projected out of dorsal neck. When rats regained their body weight before operation in more than 1 week from operation, the test compound was given. Determination was made by measuring a mean blood pressure and a heart rate under unanesthetized and unrestrained conditions with the cannula connected to an electronic recording system. The test compound was suspended in a 1% tragacanth gum solution to make up a concentration so as to be a volume of 5 ml./kg. and then orally given.

## COc1cc2nc(N3CCN(C(=O)C=Cc4ccccc4)CC3)nc(N)c2cc1OC [Compound No. 1, 2-(4-Cinnamoylpiperazin-1-yl)-4-amino-6,7-dimethoxyquinazoline]
Adrenergic α-receptor
  α-receptor blocking action as compared with the action of prazosin: 1/10
In vivo
  LD50 at 168 h: > 5000 mg/kg
ICR strain male mice; p.o., 1,250 mg./kg.
  Body weight gain after 7 days: +3.9 g.
  No. of deceased animal: 0
ICR strain male mice; p.o., 2,500 mg./kg.
  Body weight gain after 7 days: +4.0 g.
  No. of deceased animal: 0
ICR strain male mice; p.o., 5,000 mg./kg.
  Body weight gain after 7 days: +4.7 g.
  No. of deceased animal: 0
[1]; SHR, p.o.
  time of maximum antihypertensive effect from oral administration: 3 to 6 h
[1]; SHR, p.o., 0.3-3 mg./kg., in words
  antihypertensive effect, dose dependence: correlated with a dose
[1]; SHR, p.o., 1 mg./kg., 3 hrs.
  Change in blood pressure after 3 hrs. from administration: -18 mmHg
[1]; SHR, p.o., 10 mg./kg., 3 hrs.
  Change in blood pressure after 3 hrs. from administration: -53 mmHg
[1]; 0.3 mg./kg., 1 hr.
  Changes in blood pressure (BP) after oral administration: -14±5.1 mm.Hg.
  Changes in heart rate (HR) after oral administration: -5.3±3.9 no/min.
[1]; 0.3 mg./kg., 3 hrs.
  Changes in blood pressure (BP) after oral administration: -16±3.3 mm.Hg.
  Changes in heart rate (HR) after oral administration: -3.8±7.4 no/min.
[1]; 0.3 mg./kg., 6 hrs.
  Changes in blood pressure (BP) after oral administration: -19±1.9 mm.Hg.
  Changes in heart rate (HR) after oral administration: 0.3±5.9 no/min.
[1]; 0.3 mg./kg., 24 hrs.
  Changes in blood pressure (BP) after oral administration: 4±4.3 mm.Hg.
  Changes in heart rate (HR) after oral administration: 3.9±7.1 no/min.
[1]; 1 mg./kg., 1 hr.
  Changes in blood pressure (BP) after oral administration: -20±1.6 mm.Hg.
  Changes in heart rate (HR) after oral administration: -4.8±4.1 no/min.
[1]; 1 mg./kg., 3 hrs.
  Changes in blood pressure (BP) after oral administration: -26±3.3 mm.Hg.
  Changes in heart rate (HR) after oral administration: -1.5±4.7 no/min.
[1]; 1 mg./kg., 6 hrs.
  Changes in blood pressure (BP) after oral administration: -27±4.1 mm.Hg.
  Changes in heart rate (HR) after oral administration: -7.9±2.7 no/min.
[1]; 1 mg./kg., 24 hrs.
  Changes in blood pressure (BP) after oral administration: -2±1.2 mm.Hg.
  Changes in heart rate (HR) after oral administration: -0.5±3.2 no/min.
[1]; 3 mg./kg., 1 hr.
  Changes in blood pressure (BP) after oral administration: -40±3.5 mm.Hg.
  Changes in heart rate (HR) after oral administration: 6.9±5.4 no/min.
[1]; 3 mg./kg., 3 hrs.
  Changes in blood pressure (BP) after oral administration: -35±4.4 mm.Hg.
  Changes in heart rate (HR) after oral administration: -1.7±5.5 no/min.
[1]; 3 mg./kg., 6 hrs.
  Changes in blood pressure (BP) after oral administration: -35±3.5 mm.Hg.
  Changes in heart rate (HR) after oral administration: 10.0±8.3 no/min.
[1]; 3 mg./kg., 24 hrs.
  Changes in blood pressure (BP) after oral administration: -4±4.3 mm.Hg.
  Changes in heart rate (HR) after oral administration: 19.5±7.2 no/min.
